Data published in patent US12384786B2 (MINGHUI PHARMACEUTICAL (SHANGHAI) LIMITED, priority 2019, dated 2025).

Columns and labels:
[1] = biological target: Full-length human BTK (Homo sapiens (Human), UniProt Q06187); assay: BTK inhibitory activity, Reaction Biology Corporation kinase assay; settings: for IC50: read-out: IC50(nM) BTK, (a) ATP concentration 30 μM
[2] = test system: TMD8 cells (Human diffuse large B lymphoma cells); assay: CellTiter-Glo TMD8 inhibitory activity; format: cell-based; settings: cultured in vitro
From the text: CellTiter-Glo kit was used to test the TMD8 inhibitory activity of compounds of examples on Human diffuse large B lymphoma cells cultured in vitro. IC50 values were shown below.

Sequence of Full-length human BTK (Q06187 whole entry): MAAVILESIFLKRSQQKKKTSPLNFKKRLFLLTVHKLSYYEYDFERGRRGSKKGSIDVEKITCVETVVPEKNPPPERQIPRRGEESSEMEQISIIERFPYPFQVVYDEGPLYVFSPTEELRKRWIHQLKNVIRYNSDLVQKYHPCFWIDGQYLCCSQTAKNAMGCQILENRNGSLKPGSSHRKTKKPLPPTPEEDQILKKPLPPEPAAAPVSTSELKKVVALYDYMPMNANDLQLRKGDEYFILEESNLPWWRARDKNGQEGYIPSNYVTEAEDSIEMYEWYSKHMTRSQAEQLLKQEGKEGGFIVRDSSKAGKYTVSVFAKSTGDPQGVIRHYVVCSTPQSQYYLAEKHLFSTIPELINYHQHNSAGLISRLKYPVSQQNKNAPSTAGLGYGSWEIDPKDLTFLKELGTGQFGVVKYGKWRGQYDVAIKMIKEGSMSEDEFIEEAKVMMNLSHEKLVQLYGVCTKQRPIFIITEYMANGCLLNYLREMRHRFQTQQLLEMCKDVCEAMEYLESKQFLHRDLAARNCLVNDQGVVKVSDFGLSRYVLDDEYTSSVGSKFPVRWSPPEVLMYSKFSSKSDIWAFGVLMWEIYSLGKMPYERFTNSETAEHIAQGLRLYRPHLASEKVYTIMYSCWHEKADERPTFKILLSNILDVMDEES

Nc1ncnc2c1c(-c1ccc(Oc3ccccc3)cc1)nn2[C@@H]1CCC[C@H](O)C1 [Example 2, (1S, 3R)-3-(4-amino-3-(4-phenoxyphenyl)-1H-pyrazolo[3,4-d]pyrimidin-1-yl) cyclohex-1-ol]
inhibition at 0.005 µM ([1]; read-out: BTK inhibitory rate(%)): 50%

C[C@]1(O)CCC[C@@H](n2nc(-c3ccc(Oc4ccccc4)cc3)c3c(N)ncnc32)C1 [Example 3A, (1s, 3R)-3-(4-amino-3-(4-phenoxyphenyl)-1H-pyrazolo[3,4-d]pyrimidin-1-yl)-1-methylcyclohexane-1-ol]
IC50 [2]: 208 nM

C[C@@]1(O)CCC[C@@H](n2nc(-c3ccc(Oc4ccccc4)cc3)c3c(N)ncnc32)C1 [Example 3B, (1R, 3R)-3-(4-amino-3-(4-phenoxyphenyl)-1H-pyrazolo[3,4-d]pyrimidin-1-yl)-1-methylcyclohexane-1-ol]
IC50 [2]: 200 nM

Nc1ncnc2c1c(-c1ccc(Oc3ccccc3)cc1)nn2C1CCC(O)(C(F)(F)F)C1 (centres unmarked) [Example 7, 3-(4-amino-3-(4-phenoxyphenyl)-1H-pyrazolo[3,4-d]pyrimidin-1-yl)-1-(trifluoromethyl) Cyclopentanol]
IC50 [2]: 504 nM

Nc1ncnc2c1c(-c1ccc(Oc3ccccc3)cc1F)nn2[C@@H]1CCC[C@@H](O)C1 [Example 16, (1R, 3R)-3-(4-amino-3-(2-fluoro-4-phenoxyphenyl)-1H-pyrazolo[3,4-d]pyrimidin-1-yl)cyclohex-1-ol]
IC50 [2]: 41 nM
IC50 [1]: 18.8 nM

Nc1ncnc2c1c(-c1ccc(Oc3ccccc3F)cc1)nn2[C@@H]1CCC[C@@H](O)C1 [Example 17, (1R,3R)-3-(4-amino-3-(4-(2-fluorophenoxy)phenyl)-1H-pyrazolo[3,4-d]pyrimidin-1-yl)cyclohex-1-ol]
IC50 [2]: 33 nM
IC50 [1]: 24.1 nM

Nc1ncnc2c1c(-c1ccc(Oc3c(F)cccc3F)cc1)nn2[C@@H]1CCC[C@@H](O)C1 [Example 18, (1R, 3R)-3-(4-amino-3-(4-(2,6-difluorophenoxy)phenyl)-1H-pyrazolo[3,4-d]pyrimidin-1-yl)cyclohex-1-ol]
IC50 [2]: 183 nM
IC50 [1]: 49.1 nM

COc1cccc(Oc2ccc(-c3nn([C@@H]4CCC[C@@H](O)C4)c4ncnc(N)c34)cc2)c1F [Example 19, (1R, 3R)-3-(4-amino-3-(4-(2-fluoro-3-methoxyphenoxy)phenyl)-1H-pyrazolo[3,4-d]pyrimidin-1-yl)cyclohex-1-ol]
IC50 [2]: 0.5 nM
IC50 [1]: 24.9 nM

COc1cccc(Oc2ccc(-c3nn([C@H]4CC[C@H](O)CC4)c4ncnc(N)c34)cc2)c1F [Example 21, (1r, 4r)-4-(4-amino-3-(4-(2-fluoro-3-methoxyphenoxy)phenyl)-1H-pyrazolo[3,4-d]pyrimidin-1-yl)cyclohex-1-ol]
IC50 [1]: 16 nM

COc1cccc(Oc2ccc(-c3nn(C4CCC(O)C4)c4ncnc(N)c34)cc2)c1F (centres unmarked) [Example 22, 3-(4-amino-3-(4-(2-fluoro-3-methoxyphenoxy)phenyl)-1H-pyrazolo[3,4-d]pyrimidin-1-yl)cyclopentane-1-ol]
IC50 [2]: 8 nM

Nc1ncnc2c1c(-c1ccc(Oc3cccc(F)c3)cc1)nn2C1CCC(O)C1 (centres unmarked) [Example 25, 3-(4-amino-3-(4-(3-fluorophenoxy)phenyl)-1H-pyrazolo[3,4-d]pyrimidin-1-yl) cyclopentane-1-ol]
IC50 [1]: 26.9 nM

COc1cccc(Oc2ccc(-c3nn(C4CCCCC4)c4ncnc(N)c34)cc2)c1F [Example 29, 1-cyclohexyl-3-(4-(2-fluoro-3-methoxyphenoxy)phenyl)-1H-pyrazolo[3,4-d]pyrimidin-4-amine, reference compound]
IC50 [1]: 64.1 nM

Nc1ncnc2c1c(-c1ccc(Oc3cccc(O)c3F)cc1)nn2[C@@H]1CCC[C@@H](O)C1 [Example 33, (1R,3R)-3-(4-(4-amino-1-(3-hydroxycyclohexyl)-1H-pyrazolo[3,4-d]pyrimidin-3-yl)phenoxy)-2-fluorophenol]
IC50 [1]: 19.2 nM
